Results published in the NIST ThermoML archive (doi:10.1016/j.tca.2006.02.034).
Numbers after ± are expanded uncertainties.

Conditions: Crystal; Adiabatic calorimetry

`CCCC[n+]1ccn(C)c1.O=S(=O)([N-]S(=O)(=O)C(F)(F)F)C(F)(F)F` gave a Triple point temperature of 270.22 ± 0.05 K.
